Test results from ChEMBL document CHEMBL1201862, “PubChem BioAssay data set” (2004).
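Five compound concentrations were applied to cells in 96-well plates for 48 hours; endpoints were derived by simple linear interpolation of the resulting dose-response curve. Here, GI50 denotes the concentration required for 50% inhibition of growth.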 Active and inactive are the calls of the source. Rule as the data show it: active = GI50 up to about 1.1 µM and inactive = higher.

Legend:
Assay in all cases: inhibition of tumour cell growth, NCI panel, 48 h
SW-620 = tested on: SW-620
SK-MEL-5 = tested on: SK-MEL-5
LOX IMVI = tested on: LOX IMVI
Malme-3M = tested on: Malme-3M
CCRF-CEM = tested on: CCRF-CEM
SN12C = tested on: SN12C
SK-OV-3 = tested on: SK-OV-3
KM12 = tested on: KM12
EKVX = tested on: EKVX
UO-31 = tested on: UO-31
COLO 205 = tested on: COLO 205
UACC-257 = tested on: UACC-257
NCI-H460 = tested on: NCI-H460
NCI-H522 = tested on: NCI-H522
SF-268 = tested on: SF-268
M14 = tested on: M14
OVCAR-4 = tested on: OVCAR-4
A498 = tested on: A498
DU-145 = tested on: DU-145
MDA-MB-231 = tested on: MDA-MB-231

Structure (SMILES) | GI50 (SW-620) | GI50 (SK-MEL-5) | GI50 (LOX IMVI) | GI50 (Malme-3M) | GI50 (CCRF-CEM) | GI50 (SN12C) | GI50 (SK-OV-3) | GI50 (KM12) | GI50 (EKVX) | GI50 (UO-31) | GI50 (COLO 205) | GI50 (UACC-257) | GI50 (NCI-H460) | GI50 (NCI-H522) | GI50 (SF-268) | GI50 (M14) | GI50 (OVCAR-4) | GI50 (A498) | GI50 (DU-145) | GI50 (MDA-MB-231)
Cc1ccccc1NC(=O)c1ccc([N+](=O)[O-])cc1 | > 100 µM (inactive) | 84.9 µM (inactive) | > 100 µM (inactive) | > 100 µM (inactive) | > 100 µM (inactive) | > 100 µM (inactive) | > 100 µM (inactive) | 67.5 µM (inactive) | > 100 µM (inactive) | > 100 µM (inactive) | > 100 µM (inactive) | > 100 µM (inactive) | > 100 µM (inactive) | 28 µM (inactive) | > 100 µM (inactive) | > 100 µM (inactive) | > 100 µM (inactive) | > 100 µM (inactive) | – | –
COc1cc(Nc2nc3cc(C(F)(F)F)ccc3nc2C)cc(OC)c1OC | 13.3 µM (inactive) | 9.79 µM (inactive) | 3.13 µM (inactive) | 13.6 µM (inactive) | 5.74 µM (inactive) | 10.4 µM (inactive) | 14.4 µM (inactive) | 6.32 µM (inactive) | 16.6 µM (inactive) | 4.22 µM (inactive) | 12.1 µM (inactive) | 6.37 µM (inactive) | 4.11 µM (inactive) | 12.3 µM (inactive) | 16 µM (inactive) | 7.6 µM (inactive) | 16.3 µM (inactive) | 3.81 µM (inactive) | – | –
CCCCCNC(=O)CCCCCCCCCCCNC(=O)CCCCCCCCCCN1C=CC(=CC=C2C=CC(=O)C=C2)C=C1 | 54.1 µM (inactive) | 35.2 µM (inactive) | 34.8 µM (inactive) | 34.9 µM (inactive) | 15.1 µM (inactive) | 39.4 µM (inactive) | > 100 µM (inactive) | 37.4 µM (inactive) | > 100 µM (inactive) | > 100 µM (inactive) | 15.3 µM (inactive) | 16.6 µM (inactive) | > 100 µM (inactive) | 32.4 µM (inactive) | > 100 µM (inactive) | > 100 µM (inactive) | 65 µM (inactive) | > 100 µM (inactive) | – | –
COC1(C(C)(C)C)C=C(C(C)(C)C)P(=O)(O)O1 (configuration not stated) | > 100 µM (inactive) | > 100 µM (inactive) | > 100 µM (inactive) | > 100 µM (inactive) | – | > 100 µM (inactive) | > 100 µM (inactive) | > 100 µM (inactive) | > 100 µM (inactive) | – | > 100 µM (inactive) | > 100 µM (inactive) | > 100 µM (inactive) | > 100 µM (inactive) | > 100 µM (inactive) | > 100 µM (inactive) | > 100 µM (inactive) | > 100 µM (inactive) | > 100 µM (inactive) | –
O=C1C(c2ccccc2)=C(O)c2cccc3cccc1c23 | > 100 µM (inactive) | > 100 µM (inactive) | > 100 µM (inactive) | > 100 µM (inactive) | > 100 µM (inactive) | > 100 µM (inactive) | > 100 µM (inactive) | > 100 µM (inactive) | > 100 µM (inactive) | > 100 µM (inactive) | > 100 µM (inactive) | > 100 µM (inactive) | > 100 µM (inactive) | > 100 µM (inactive) | > 100 µM (inactive) | > 100 µM (inactive) | > 100 µM (inactive) | > 100 µM (inactive) | – | –
O=C(NC1C(=O)NNC1c1ccccc1Cl)c1ccccc1 (configuration not stated) | > 100 µM (inactive) | > 100 µM (inactive) | > 100 µM (inactive) | > 100 µM (inactive) | > 100 µM (inactive) | > 100 µM (inactive) | > 100 µM (inactive) | > 100 µM (inactive) | > 100 µM (inactive) | > 100 µM (inactive) | > 100 µM (inactive) | > 100 µM (inactive) | > 100 µM (inactive) | 91.4 µM (inactive) | > 100 µM (inactive) | > 100 µM (inactive) | > 100 µM (inactive) | > 100 µM (inactive) | – | –
CN(C)C(=S)/N=c1\ss/c(=N\C(=S)N(C)C)n1C1CCCCC1 | > 100 µM (inactive) | 2.29 µM (inactive) | 86.3 µM (inactive) | > 100 µM (inactive) | 32.7 µM (inactive) | > 100 µM (inactive) | > 100 µM (inactive) | > 100 µM (inactive) | > 100 µM (inactive) | > 100 µM (inactive) | 30.8 µM (inactive) | > 100 µM (inactive) | 0.515 µM (active) | 25.5 µM (inactive) | 44.9 µM (inactive) | > 100 µM (inactive) | 15.5 µM (inactive) | > 100 µM (inactive) | – | –
O=c1c2ccccc2c(=O)c2c1c1[nH]c3ccccc3c1c1c(=O)c3ccccc3c(=O)c21 | > 100 µM (inactive) | > 100 µM (inactive) | > 100 µM (inactive) | > 100 µM (inactive) | 94 µM (inactive) | > 100 µM (inactive) | > 100 µM (inactive) | > 100 µM (inactive) | > 100 µM (inactive) | > 100 µM (inactive) | > 100 µM (inactive) | > 100 µM (inactive) | > 100 µM (inactive) | > 100 µM (inactive) | > 100 µM (inactive) | > 100 µM (inactive) | > 100 µM (inactive) | > 100 µM (inactive) | – | –
[N-]=[N+]=NC1(Cc2ccccc2)C(=O)Nc2ccccc2C1=O (configuration not stated) | > 100 µM (inactive) | > 100 µM (inactive) | > 100 µM (inactive) | > 100 µM (inactive) | > 100 µM (inactive) | > 100 µM (inactive) | > 100 µM (inactive) | > 100 µM (inactive) | > 100 µM (inactive) | 39.6 µM (inactive) | > 100 µM (inactive) | > 100 µM (inactive) | > 100 µM (inactive) | 87.1 µM (inactive) | > 100 µM (inactive) | > 100 µM (inactive) | > 100 µM (inactive) | > 100 µM (inactive) | – | –
O/N=C1/CCCC/C1=C/C=C/c1ccccc1 | 26.5 µM (inactive) | 16.5 µM (inactive) | 17.2 µM (inactive) | 21.3 µM (inactive) | 20.6 µM (inactive) | 17.8 µM (inactive) | 39 µM (inactive) | 20.1 µM (inactive) | – | 20.6 µM (inactive) | 19.4 µM (inactive) | 24.9 µM (inactive) | 22.7 µM (inactive) | 19.1 µM (inactive) | 19.1 µM (inactive) | 21.2 µM (inactive) | 30.3 µM (inactive) | 20.9 µM (inactive) | 22.1 µM (inactive) | –
Cc1nc(C(N)=S)sc1C(=O)CC(=O)C(=O)Nc1nc2ccccc2[nH]1 | > 100 µM (inactive) | > 100 µM (inactive) | > 100 µM (inactive) | > 100 µM (inactive) | – | > 100 µM (inactive) | > 100 µM (inactive) | > 100 µM (inactive) | > 100 µM (inactive) | > 100 µM (inactive) | – | > 100 µM (inactive) | > 100 µM (inactive) | > 100 µM (inactive) | > 100 µM (inactive) | > 100 µM (inactive) | > 100 µM (inactive) | > 100 µM (inactive) | – | > 100 µM (inactive)
C[C@@H](NC(C#N)c1ccco1)c1ccccc1 (some centres not stated) | > 100 µM (inactive) | > 100 µM (inactive) | – | > 100 µM (inactive) | > 100 µM (inactive) | > 100 µM (inactive) | > 100 µM (inactive) | > 100 µM (inactive) | > 100 µM (inactive) | > 100 µM (inactive) | – | > 100 µM (inactive) | > 100 µM (inactive) | – | > 100 µM (inactive) | > 100 µM (inactive) | – | > 100 µM (inactive) | > 100 µM (inactive) | –
CC(=O)OC(CC1(C)C(C)CCC23COC(=O)C2=CCCC31)c1ccoc1 (configuration not stated) | 24.9 µM (inactive) | 19.5 µM (inactive) | 21.3 µM (inactive) | 21.8 µM (inactive) | 20.2 µM (inactive) | 19.9 µM (inactive) | 40.8 µM (inactive) | 26.2 µM (inactive) | 30.5 µM (inactive) | 19.1 µM (inactive) | 40.4 µM (inactive) | 24 µM (inactive) | 40.4 µM (inactive) | 18.5 µM (inactive) | 15.9 µM (inactive) | 16.3 µM (inactive) | 28.1 µM (inactive) | 45.3 µM (inactive) | – | –
COc1cc(CCc2ccc(N)cc2)cc(OC)c1OC | 45.5 µM (inactive) | 29.4 µM (inactive) | 61 µM (inactive) | 28.2 µM (inactive) | 49.4 µM (inactive) | > 54.8 µM (inactive) | > 91.4 µM (inactive) | 18.7 µM (inactive) | > 66.5 µM (inactive) | > 45.3 µM (inactive) | 18.9 µM (inactive) | > 94.4 µM (inactive) | 55.1 µM (inactive) | 31.5 µM (inactive) | > 69.3 µM (inactive) | 54.6 µM (inactive) | 63.5 µM (inactive) | 56.1 µM (inactive) | – | –
COC[C@H]1OC(=O)c2coc3c2[C@@]1(C)C1=C(C3=O)[C@@H]2CCC(=O)[C@@]2(C)C[C@H]1OC(C)=O [WORTMANNIN] | 17.7 µM (inactive) | 11.5 µM (inactive) | 3.66 µM (inactive) | – | 1.38 µM (inactive) | 7.14 µM (inactive) | – | 11.5 µM (inactive) | 9.66 µM (inactive) | 0.665 µM (active) | 10 µM (inactive) | 2.95 µM (inactive) | 8.95 µM (inactive) | 13.8 µM (inactive) | 21.4 µM (inactive) | 2.15 µM (inactive) | – | – | 3.34 µM (inactive) | –
